Data as given in article PMC10449631 (Nature Chemical Biology, 2023).
“And” between values parts separate entries of the source, which are not always exact repeats. Equal entries are not always repeated. No end group written: not given here.

Target: T1, PaAP (Pseudomonas aeruginosa, UniProt Q02PA2, A513L/Q514V/S515P)
T1 construct: PaAP (WT, residues 27–536); His6 (TEV cleavable) (N, cleaved yes); made in house; host or cells: E. coli SHuffle T7
Assay: Peptide digestion assay (overnight and time course, LC-MS/MALDI)
Assay type: biochemical
Details: for substrate of / degraded by PaAP (words): incubated with PaAP overnight, LC–MS or MALDI; for P0 (parent peptide, LC–MS signal): 500 μM peptide, 1 μM PaAP_T
Method: A variety of peptides of varying lengths and compositions were incubated with PaAP at room temperature. Assays were performed by incubating (overnight at room temperature) 500 μM of substrate (peptides) with 1 μM enzyme (PaAP) in reaction buffer (50 mM Tris, pH 8.5, 100 mM NaCl). The reactions were quenched by heating to 100 °C for 10 min followed by centrifugation at 17,000g in a benchtop centrifuge to remove precipitate. Supernatant was collected and samples were analyzed by LC–MS. Initial trial assays were carried out in the presence and absence (control) of enzyme to determine if the substrate was degraded (single or triplicate experiments). Time-course assays were performed on selected peptide substrates in triplicate. A 300 μl reaction (including 500 μM of substrate) was initiated by the addition of 1 μM enzyme. The reaction was incubated at room temperature. The reaction was quenched at set timepoints by the removal of 30 μl aliquots, which were immediately heated to 100 °C for 10 min. The samples were analyzed by LC–MS using a Xevo Q-ToF (Waters) as described below, searching for masses of all peptide breakdown products.
Peptide degradation time courses were fitted to exponential equations as follows:
P0 peptide consumption was fitted to a single exponential equation (equation (2)) with the format2 yt=y0−Plateaue^−kt+Plateau
Time courses for the formation and decay of peptide intermediates were fitted to double exponential equations (equation (3)) and single exponential equations, followed by a linear phase (4)3 yt=y0−Plateau1e^−k1t+y0−Plateau2e^−k2t+Plateau 4 yt=y0−Plateaue^−kt+vt+Plateau where y(t) is the product formed at time t, y0 − Plateau is the amplitude of the exponential phase, k is the observed rate constant for the exponential phase, y0 is the value of y at time 0, Plateau is the value of y after exponential phase, C is the offset and v is the slope of the linear phase.
Peptide samples incubated in the presence and absence of PaAP were initially analyzed by MALDI. The peptide sample (0.5 µl at 10 µM) was spotted along with matrix (0.5 µl 10 mg ml^−1 α-cyano-4-hydroxycinnamic acid in ACN/0.1% TFA (50/50, vol/vol)) on a stainless steel MALDI plate and left to dry. The sample plate was loaded into a Sciex 4800 MALDI mass spectrometer. The laser voltage was adjusted to give a good signal to noise strength, and 50 shots were acquired in a random pattern across the spot and spectra combined. The spectra were externally calibrated with Sciex Pepcal mix (range: 500–4,000 m/z).

T1 sequence (Q02PA2 37-516 A513L/Q514V/S515P): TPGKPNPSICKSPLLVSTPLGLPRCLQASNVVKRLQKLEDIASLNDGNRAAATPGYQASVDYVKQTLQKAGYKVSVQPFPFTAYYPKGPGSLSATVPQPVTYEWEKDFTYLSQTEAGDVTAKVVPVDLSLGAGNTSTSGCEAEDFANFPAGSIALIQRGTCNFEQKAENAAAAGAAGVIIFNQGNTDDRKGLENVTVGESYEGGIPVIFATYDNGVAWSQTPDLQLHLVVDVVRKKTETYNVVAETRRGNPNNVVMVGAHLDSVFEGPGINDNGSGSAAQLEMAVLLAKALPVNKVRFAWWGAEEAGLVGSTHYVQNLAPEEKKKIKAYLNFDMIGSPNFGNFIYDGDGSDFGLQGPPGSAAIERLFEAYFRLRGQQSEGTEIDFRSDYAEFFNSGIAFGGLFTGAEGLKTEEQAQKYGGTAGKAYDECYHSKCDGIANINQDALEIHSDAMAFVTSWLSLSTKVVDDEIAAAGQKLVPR

**Q.** How did the “substrate of / degraded by PaAP (words)” value turn out when ERWGHDFIK [linear-ERWGHDFIK] was run?
**A.** Its value is “acts as a substrate”.

**Q.** And the “substrate of / degraded by PaAP (words)” value (listed as ERWGHDFIK)?
**A.** The value was “capable of processing”.

**Q.** And the “P0 (parent peptide, LC–MS signal)” value (time 0 minutes)?
**A.** Its value is 472729 and 388218 and 391107.

**Q.** And the “P0 (parent peptide, LC–MS signal)” value (time 5 minutes)?
**A.** Its value is 463970 and 401514 and 388992.

**Q.** What about the “P0 (parent peptide, LC–MS signal)” value (time 10 minutes) of the same sequence?
**A.** Its value is 456641 and 389333 and 386619.

**Q.** And the “P0 (parent peptide, LC–MS signal)” value (time 30 minutes)?
**A.** The value was 422990 and 361623 and 355988.

**Q.** And the “P0 (parent peptide, LC–MS signal)” value (time 60 minutes)?
**A.** Its value is 374560 and 318426 and 323916.

**Q.** What about the “P0 (parent peptide, LC–MS signal)” value (time 90 minutes) of the same sequence?
**A.** The value was 323540 and 290204 and 288024.

**Q.** What about the “P0 (parent peptide, LC–MS signal)” value (time 120 minutes) of the same sequence?
**A.** Its value is 238229 and 257847.

**Q.** And the “P0 (parent peptide, LC–MS signal)” value (time 1220 minutes)?
**A.** Its value is 623.109 and 431.795 and 326.884.
